The target of this experiment is AKT1 (Homo sapiens, UniProt P31749). Briefly: HTS off-chip mobility-shift assay, typical screen parameters for AKT1. Type of experiment: biochemical. Particulars: read-out: inhibition (control inhibitor). From the text:
The following procedures describe the reagent and plate preparation for a HTS of an ATP-utilizing enzyme, such as a protein kinase, run in an off-chip mobility-shift assay format. The following provides an HTS protocol for running a protein kinase HTS screen on a Caliper HTS 250 microfluidics system. The following parameters are dependent on the protein kinase used and can be determined by one skilled in the art as part of a typical assay development process. For example, the peptide substrate used can be identified from the current literature, by screening a peptide library of potential protein kinase substrates, or by other applicable means accepted in the field.
The following table provides typical screen assay parameters appropriate for a Caliper HTS 250 microfluidics system used to assay AKT1. Parameters used to assay other protein kinases can be determined by one skilled in the art. […]
Assays to determine the kinase inhibitory activity of compounds of the present disclosure were performed using a Caliper HTS 250 microfluidics device, Greiner U-bottom assay plates, a Multidrop for transfer of reagents, and Biomek FX (AMNCBM03) software. […] The inhibition of the ATP-utilizing enzyme, such as a particular protein kinase, was determined by measuring the ratio of the peptide substrate to phosphorylated product for each well of the assay plate using the Caliper HTS 250 system.

AKT1, sequence (P31749 whole entry): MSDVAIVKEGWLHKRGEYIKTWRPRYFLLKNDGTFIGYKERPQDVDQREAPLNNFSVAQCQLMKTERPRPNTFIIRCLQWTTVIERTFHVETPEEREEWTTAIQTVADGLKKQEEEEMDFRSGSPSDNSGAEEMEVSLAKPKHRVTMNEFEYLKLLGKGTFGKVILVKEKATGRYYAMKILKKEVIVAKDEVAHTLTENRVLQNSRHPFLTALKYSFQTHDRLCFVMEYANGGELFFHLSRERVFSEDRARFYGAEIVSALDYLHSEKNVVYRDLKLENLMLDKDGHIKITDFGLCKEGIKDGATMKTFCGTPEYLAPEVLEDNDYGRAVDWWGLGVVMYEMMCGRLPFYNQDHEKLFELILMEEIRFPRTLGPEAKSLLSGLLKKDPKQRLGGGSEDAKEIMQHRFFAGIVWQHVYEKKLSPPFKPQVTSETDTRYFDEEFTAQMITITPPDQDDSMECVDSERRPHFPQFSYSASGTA

`CN[C@@H]1C[C@H]2O[C@@](C)([C@@H]1OC)n1c3ccccc3c3c4c(c5c6ccccc6n2c5c31)C(=O)NC4` [Staurosporine]: the inhibition (as a rule, the change of the read-out against control, counted positive when it falls) at 0.138 µM worked out at 70%.

In the case of `O=C(O)CN(CCN(CC(=O)O)CC(=O)O)CC(=O)O` [EDTA, ethylenediaminetetraacetic acid], the inhibition at 20000 µM (inhibitor concentration 20 mM, AKT1 screen) was found to be 100%.
